Experimental data from ChEMBL document CHEMBL1201862, “PubChem BioAssay data set” (2004).
The source made the active and inactive calls.

Columns and labels:
[1] = target: T1, Sentrin-specific protease 8 (Homo sapiens, UniProt Q96LD8); assay type: functional;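 note: luminescence read-out of SENP8 inhibition, dose-response confirmation following an ultra-high-throughput screen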
T1 sequence (Q96LD8 whole entry): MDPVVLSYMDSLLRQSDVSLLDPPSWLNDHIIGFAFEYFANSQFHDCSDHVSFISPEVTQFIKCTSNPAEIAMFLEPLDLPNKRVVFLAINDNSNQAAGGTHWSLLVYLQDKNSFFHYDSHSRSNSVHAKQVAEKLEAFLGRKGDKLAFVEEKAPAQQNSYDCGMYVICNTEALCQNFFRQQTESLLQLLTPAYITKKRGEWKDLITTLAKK

Caspase-3 = target: T2, Caspase-3 (Homo sapiens, UniProt P42574); assay type: functional;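 note: Dose-response selectivity test against caspase-3 for candidate inhibitors of sentrin-specific proteases (SENPs)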
T2 sequence (P42574 whole entry): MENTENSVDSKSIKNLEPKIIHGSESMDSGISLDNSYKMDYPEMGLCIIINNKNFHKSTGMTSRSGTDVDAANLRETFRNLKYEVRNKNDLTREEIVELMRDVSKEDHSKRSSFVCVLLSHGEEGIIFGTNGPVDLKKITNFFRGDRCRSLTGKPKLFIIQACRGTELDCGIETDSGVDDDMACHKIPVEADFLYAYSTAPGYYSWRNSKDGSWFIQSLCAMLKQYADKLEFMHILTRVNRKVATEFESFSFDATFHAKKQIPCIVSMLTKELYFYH

[2] = target: T3, Sentrin-specific protease 6 (Homo sapiens, UniProt Q9GZR1); assay type: functional;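 note: Luminescence-based dose-response confirmatory assay of SENP6 inhibition, following up an ultra-high-throughput screen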
T3 sequence (Q9GZR1 whole entry): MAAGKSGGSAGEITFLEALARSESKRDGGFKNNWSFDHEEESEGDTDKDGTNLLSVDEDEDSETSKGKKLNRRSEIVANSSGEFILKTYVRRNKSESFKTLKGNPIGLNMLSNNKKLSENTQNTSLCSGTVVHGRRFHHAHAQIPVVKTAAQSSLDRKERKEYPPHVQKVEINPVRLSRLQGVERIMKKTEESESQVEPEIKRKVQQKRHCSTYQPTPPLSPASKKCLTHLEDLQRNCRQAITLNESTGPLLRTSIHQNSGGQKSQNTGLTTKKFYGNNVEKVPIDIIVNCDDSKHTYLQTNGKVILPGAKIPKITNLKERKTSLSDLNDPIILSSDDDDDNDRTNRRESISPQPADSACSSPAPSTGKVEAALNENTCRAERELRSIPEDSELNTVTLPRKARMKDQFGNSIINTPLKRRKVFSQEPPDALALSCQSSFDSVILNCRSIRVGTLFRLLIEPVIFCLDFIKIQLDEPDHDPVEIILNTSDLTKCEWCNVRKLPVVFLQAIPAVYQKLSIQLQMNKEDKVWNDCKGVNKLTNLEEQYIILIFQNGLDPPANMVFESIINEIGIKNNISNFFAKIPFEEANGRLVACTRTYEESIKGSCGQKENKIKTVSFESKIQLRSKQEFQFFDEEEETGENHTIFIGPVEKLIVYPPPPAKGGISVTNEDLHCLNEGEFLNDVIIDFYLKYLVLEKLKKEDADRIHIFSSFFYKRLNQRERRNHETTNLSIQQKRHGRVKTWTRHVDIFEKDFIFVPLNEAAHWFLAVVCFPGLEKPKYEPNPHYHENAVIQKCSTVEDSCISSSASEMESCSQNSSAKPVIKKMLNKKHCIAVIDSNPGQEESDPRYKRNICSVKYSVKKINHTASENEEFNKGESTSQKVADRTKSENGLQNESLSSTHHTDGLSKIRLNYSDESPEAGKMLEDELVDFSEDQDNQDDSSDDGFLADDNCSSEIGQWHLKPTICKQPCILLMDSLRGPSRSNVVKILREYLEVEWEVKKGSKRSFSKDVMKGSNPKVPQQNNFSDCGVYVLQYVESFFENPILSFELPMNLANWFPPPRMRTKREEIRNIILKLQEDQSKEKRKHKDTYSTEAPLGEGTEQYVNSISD

[3] = target: T4, Sentrin-specific protease 7 (Homo sapiens, UniProt Q9BQF6); assay type: functional;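 note: Luminescence-based dose-response confirmation of ultra-high-throughput screening hits, measuring inhibition of SENP7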
T4 sequence (Q9BQF6 whole entry): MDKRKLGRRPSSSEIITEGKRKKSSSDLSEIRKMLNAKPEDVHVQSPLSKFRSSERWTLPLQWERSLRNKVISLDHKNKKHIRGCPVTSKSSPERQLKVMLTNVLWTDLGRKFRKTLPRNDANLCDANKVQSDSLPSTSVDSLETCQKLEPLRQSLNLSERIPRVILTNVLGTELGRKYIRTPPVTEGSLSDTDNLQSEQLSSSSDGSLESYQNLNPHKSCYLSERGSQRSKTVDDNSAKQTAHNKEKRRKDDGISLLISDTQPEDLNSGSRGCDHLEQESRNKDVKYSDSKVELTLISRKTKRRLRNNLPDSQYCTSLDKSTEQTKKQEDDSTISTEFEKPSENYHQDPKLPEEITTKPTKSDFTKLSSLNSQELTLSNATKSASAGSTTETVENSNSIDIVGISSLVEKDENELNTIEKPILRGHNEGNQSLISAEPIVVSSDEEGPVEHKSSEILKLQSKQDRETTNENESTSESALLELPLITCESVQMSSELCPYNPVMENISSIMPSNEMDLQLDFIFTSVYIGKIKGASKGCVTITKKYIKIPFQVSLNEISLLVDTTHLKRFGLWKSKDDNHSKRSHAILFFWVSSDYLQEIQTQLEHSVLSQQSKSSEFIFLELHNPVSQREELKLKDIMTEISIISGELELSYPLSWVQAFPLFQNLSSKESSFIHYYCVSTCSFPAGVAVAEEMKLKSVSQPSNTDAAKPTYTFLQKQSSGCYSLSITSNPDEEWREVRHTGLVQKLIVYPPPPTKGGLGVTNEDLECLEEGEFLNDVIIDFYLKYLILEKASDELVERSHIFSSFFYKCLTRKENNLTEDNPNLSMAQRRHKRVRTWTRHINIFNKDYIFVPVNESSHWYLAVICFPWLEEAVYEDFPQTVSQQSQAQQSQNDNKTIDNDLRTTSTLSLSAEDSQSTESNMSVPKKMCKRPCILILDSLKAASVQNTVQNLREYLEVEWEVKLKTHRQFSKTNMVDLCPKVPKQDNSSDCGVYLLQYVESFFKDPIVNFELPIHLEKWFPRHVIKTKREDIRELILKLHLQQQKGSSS

[4] = target: T5, Long-chain-fatty-acid--AMP ligase FadD28 (Mycobacterium tuberculosis, UniProt P9WQ59); test: Fluorescence polarization aasay to screen for inhibitors that compete for the binding of FadD28 to a bisubstrate Measured in Biochemical System Using Plate Reader - 2147-01_Inhibitor_Dose_CherryPick_Activity.; assay type: functional, Mycobacterium tuberculosis H37Rv
T5 sequence (P9WQ59 whole entry): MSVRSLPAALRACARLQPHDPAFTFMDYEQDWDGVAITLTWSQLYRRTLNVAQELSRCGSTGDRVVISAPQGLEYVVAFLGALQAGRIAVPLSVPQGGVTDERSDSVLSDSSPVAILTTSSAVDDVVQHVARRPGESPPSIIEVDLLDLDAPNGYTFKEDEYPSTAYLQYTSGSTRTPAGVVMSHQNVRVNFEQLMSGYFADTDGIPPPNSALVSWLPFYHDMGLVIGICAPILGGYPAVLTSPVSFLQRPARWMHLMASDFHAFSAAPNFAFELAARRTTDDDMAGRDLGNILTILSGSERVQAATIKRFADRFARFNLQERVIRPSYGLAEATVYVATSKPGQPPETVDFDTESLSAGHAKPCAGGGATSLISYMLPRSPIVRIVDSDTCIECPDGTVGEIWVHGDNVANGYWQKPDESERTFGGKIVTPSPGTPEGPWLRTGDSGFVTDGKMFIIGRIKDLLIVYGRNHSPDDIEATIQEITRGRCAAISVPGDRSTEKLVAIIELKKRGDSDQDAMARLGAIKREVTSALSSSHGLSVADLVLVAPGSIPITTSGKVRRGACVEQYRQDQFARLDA

[5] = target: T6, Corticotropin-releasing factor receptor 2/Corticotropin-releasing factor-binding protein (Homo sapiens, UniProt P24387+Q13324); test: activators of CRF receptor 2 with binding protein – uHTS hits, confirmation (AID 602473); assay type: functional; details: read-out: EC50_Mean
T6 sequence (Q13324 whole entry): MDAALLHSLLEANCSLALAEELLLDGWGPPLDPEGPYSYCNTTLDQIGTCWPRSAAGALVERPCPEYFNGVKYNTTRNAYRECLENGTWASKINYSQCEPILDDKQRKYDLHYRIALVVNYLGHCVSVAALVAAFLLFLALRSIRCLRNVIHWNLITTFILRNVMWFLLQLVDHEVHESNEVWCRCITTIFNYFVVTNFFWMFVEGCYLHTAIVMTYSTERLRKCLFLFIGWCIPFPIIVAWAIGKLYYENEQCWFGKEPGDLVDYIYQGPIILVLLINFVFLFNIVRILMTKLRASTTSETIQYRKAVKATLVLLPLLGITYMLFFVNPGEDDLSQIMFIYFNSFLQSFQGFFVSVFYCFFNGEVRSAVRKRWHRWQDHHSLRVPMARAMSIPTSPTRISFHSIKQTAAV
T6 sequence (P24387 whole entry): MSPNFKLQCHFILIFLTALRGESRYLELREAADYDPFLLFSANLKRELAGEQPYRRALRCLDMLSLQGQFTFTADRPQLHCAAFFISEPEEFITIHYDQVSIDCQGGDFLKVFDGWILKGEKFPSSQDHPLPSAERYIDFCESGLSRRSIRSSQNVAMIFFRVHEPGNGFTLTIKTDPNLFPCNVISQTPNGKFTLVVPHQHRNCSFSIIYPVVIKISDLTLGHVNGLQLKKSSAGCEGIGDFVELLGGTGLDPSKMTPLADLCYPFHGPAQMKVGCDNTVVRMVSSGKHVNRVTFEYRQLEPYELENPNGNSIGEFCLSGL

[6] = target: T7, Endoribonuclease toxin MazF (Escherichia coli K-12, UniProt P0AE70); test: substrate-only fluorescence increase artefacts – biochemical, single-stranded RNase substrate, counter-screen for MazEF activator project, dose response (AID 588502); assay type: functional
T7 sequence (P0AE70 whole entry): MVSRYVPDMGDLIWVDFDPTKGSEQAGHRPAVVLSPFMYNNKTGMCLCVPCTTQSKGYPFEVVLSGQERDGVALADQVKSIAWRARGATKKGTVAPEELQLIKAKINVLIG

[7] = target: T7, Endoribonuclease toxin MazF; test: activation of MazEF endoribonuclease cleavage – biochemical, fluorescence, single-stranded RNA substrate, uHTS hits, dose response (AID 588481); assay type: functional
[8] = target: FAD-linked sulfhydryl oxidase ALR (Homo sapiens, UniProt P55789); test: ALR-catalysed DTT oxidation blockers – biochemical, H2O2 detection, luminescence, cherry-pick, dose response (AID 493248)
Chain of FAD-linked sulfhydryl oxidase ALR (P55789 whole entry): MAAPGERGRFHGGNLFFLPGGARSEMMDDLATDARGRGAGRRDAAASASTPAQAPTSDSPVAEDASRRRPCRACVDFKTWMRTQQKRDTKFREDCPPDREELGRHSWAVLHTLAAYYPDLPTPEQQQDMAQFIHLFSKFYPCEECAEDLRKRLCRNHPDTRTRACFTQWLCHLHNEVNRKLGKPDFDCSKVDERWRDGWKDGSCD

[9] = microbe, parasite or virus in culture; assay type: functional; details: Mycobacterium tuberculosis

Compound	AC50 [4]	EC50 [6]	EC50 [7]	further results
Cc1cccc(-c2noc(C3CCCCC3)n2)c1				IC50 [1]: > 100 µM (inactive); IC50 (Caspase-3): 32 µM (active); IC50 [2]: 40.1 µM (active); IC50 [3]: 11.3 µM (active)
COc1cc(/C=C2\SC(=S)N(CC(=O)Nc3cccnc3)C2=O)cc(OC)c1OC	72.2 µM (active)			
NS(=O)(=O)c1ccc(NC(=O)COc2ccc(C(=O)c3ccc(F)cc3)cc2)cc1	> 100 µM (inactive)			
CCOc1ccc(N2C(=O)NC(=O)/C(=C\c3c[nH]c4ccccc34)C2=O)cc1		16.3 µM (active)	> 99 µM (inactive)	EC50 [5]: 15.4 µM (active)
Cc1ccc(S(=O)(=O)NCC(=O)Nc2ccc3c(c2)OCCO3)cc1	> 100 µM (inactive)			
COC(=O)Cn1c2ccc(OC)cc2c2nc3ccccc3nc21		> 99 µM (inactive)	> 99 µM (inactive)	
COc1ccc(-c2csc(Nc3ccc(S(=O)(=O)Nc4cc(C)on4)cc3)n2)cc1	67.4 µM (active)			AC50 [8]: 12.9 µM (active)
Nc1c2c(nc3sc4c(c13)CCCCC4)CCCC2				IC50 [1]: 32.8 µM (active); CC50 [9]: 18 µM (active); IC50 (Caspase-3): 18.4 µM (active); IC50 [2]: 33.7 µM (active); IC50 [3]: 10.3 µM (active)
CCCNC(=O)Cn1c(=O)/c(=C/c2ccc(-c3cccc([N+](=O)[O-])c3)o2)s/c1=C\C(=O)C(C)(C)C		> 99 µM (inactive)	> 99 µM (inactive)	
CCCCN1CC(=O)N2[C@H]3c4cc(C)ccc4OC[C@@H]3[C@H](c3ccccc3)[C@]2(C)C1=O		24 µM (inactive)	> 99 µM (inactive)	
Cc1ccc2c(Cl)c(C(=O)N/N=C/c3cccn3C)sc2c1		> 99 µM (inactive)	> 99 µM (inactive)	
